Data on seven compounds can be found in patent publication US12692278B2, “Synthesis methods and compositions of low intermediate and low dichelate intermediate contrast agents” (priority 2021, dated 2026).

Common to all, as to type: physicochemical
Data set [1] in a line: pH controlled synthesis, free Gd versus synthesis time. The protocol:
Here, Example 1A is modified by the addition of gadolinim oxide in its entirety at first and immediately after the introduction of the DOTA, and this procedure is used to produce batch A of Gd-DOTA. Batch B is produced using the following modified procedure.
• 1. Heat reactor to 95° C. • 2. Charge water with all of gadolinium oxide • 3. Stir (stir unless otherwise indicated, nominal rate 300 rpm) until the solution is clear • 4. Add sufficient DOTA to obtain a pH of 4 • 5. When pH is >5 charge sufficient DOTA to reach pH of 4 • 6. Stir until uniformly distributed in the water, and clear • 7. If pH<4, then go to step 9 • 8. Go to step 4 • 9. Divide remaining portion of DOTA into 5 parts • 10. Add 1 part of remaining DOTA • 11. Stir until uniformly distributed in the water, and clear • 12. If DOTA remains to be added go to step 10 • 13. Continue to cook for a total of 12 hours Results

Data set [2] is described as follows: Free gadolinium as a function of synthesis time, spectrometric xylenol orange. The conditions noted are these: for Free Gd, titrated with meglumine to pH 7.0: after 32 hrs synthesis. The method, then:
Once the reference solution is prepared, then product runs can be indexed against this standard. • 23. An improvement over earlier methods involves in-line or batch sample monitoring of metastable intermediate presence. For example, the monitoring can be by Fourier Transform Infrared Spectroscopy, High Performance Liquid Chromatography, Ultra High Performance Liquid Chromatography, or Trans-metalation reaction. The reactant can be titrated with a strong acid (0.1 M HCl) and the free Gd3+ ion quantified by the improved xylenol orange titration according to the present disclosure. The metastable intermediate will release free Gd3+ more quickly than fully complexed Gd-DOTA. The presence of multiple metastable intermediate forms can be detected by dynamic titration over the span of an hour or more, and calculating the Gd3+ ion as a function of time. • 24. In addition, the relative kinetic stability of a Gd-DOTA complex is accessed by exposing the solution to phosphate anions at physiological pH. Even chelates with very high thermodynamic stability constants will equilibrate to form some free chelate and non-chelated gadolinium. Since gadolinium phosphate is insoluble, any non-chelated gadolinium will precipitate as insoluble gadolinium phosphate, and the free Gd3+ ion can be quantified by weighing the precipitate. Verify Complex Formation • 25. Verify absence of free gadolinium using Xylenol orange • 26. If free gadolinium detected, add X DOTA, raise temperature to 95+1-2° C., stir for 1 hr and proceed to step 16 • 27. If not, proceed to step 23 Preparation of Gadoteric Acid Meglumine Solution • 28. Add 90% of the meglumine at 40-45° C. • 29. Sir 10 minutes • 30. Measure pH—in-line probe calibrated to 25° C. (USP) • 31. If pH is >7.5, discard • 32. If pH is between 7.0 and 7.5, then go to step 29 • 33. If pH<than 7.0, add 2% of the Meglumine, go to step 24 • 34. Stir for 1 hr at 40-45° C. • 35. Check solution is clear, if yes proceed to 31, if not repeat 29 Gadoteric Acid Meglumine Solution Filtration • 36. Cool the solution to 20-25° C. • 37. Filter the solution using the carbon filter • 38. Rinse the reactor with 20-25° C. water using ¼ V • 39. Pass rinse through the filter • 40. Repeat rinse steps 33 & 34 for a total of 2 rinses • 41. Place filtrate and rinses back in reactor • 42. Stir at 25-30° C. for 10 min • 43. Measure Free DOTA by HPLC • 44. If Free DOTA is 0.01-0.06% ww proceed to 42 • 45. If Free DOTA<0.01% ww, add 0.03% ww equivalent of DOTA • 46. Stir for ½ hr and go to step 38 • 47. Measure pH—in-line probe calibrated to 25° C. (USP) • 48. If pH is between 7.0 and 7.5, then go to step 45 • 49. If pH<7.0, add meglumine. Stir 10 min. Go to step 42. • 50. Stir ½ hr. • 51. Check solution is clear, if yes proceed to 47, if not repeat 45 Verify Purity • 52. Measure Purity by HPLC • 53. If individual impurity>0.05%, go to step 32 Final API Adjustments • 54. Measure Free DOTA by HPLC • 55. If Free DOTA>0.06% ww, repeat steps 32-42 • 56. If Free DOTA is 0.01-0.06% ww proceed to 55 • 57. If Free DOTA<0.01% ww, add 0.03% ww equivalent of DOTA • 58. Stir ½ hr • 59. Go to Step 49 • 60. Measure pH • 61. If pH is 7.0-7.5, then go to step 53 • 62. If pH<7.0, add Meglumine. Stir 10 min. Go to step 55 Final API Testing • 63. Perform full API testing: Gadolinium content; Meglumine Content; Assay; Water Content; Heavy Metals Free Gadolinium as a Function of Synthesis Time Using the Method of Example 1A.
Free Gadolinium was determined by using the spectrometric xylenol orange technique described in previous studies.
Free Gadolinium as a Function of Synthesis Time Using the Method of Example 1.
Free Gadolinium was determined by using the improved spectrometric xylenol orange technique described in previous studies.

The nature of data set [3]: Effect of solvent (ethanol) on intermediate formation and destabilization of stable complex. As to conditions: mixed with 10% v-v ethanol, ethanol evaporated 12 hrs. The protocol:
At each time step, samples were mixed with 10% v-v ethanol. The ethanol was driven from the sample by evaporation (heating under vacuum) for 12 hrs. Free Gadolinium was determined by using the spectrometric xylenol orange technique described in previous studies.
At each time step, samples were mixed with 10% v-v ethanol. The ethanol was driven from the sample by evaporation (heating under vacuum) for 12 hrs. Free Gadolinium was determined by using the improved spectrometric xylenol orange technique described in previous studies.

Data set [4] in a line: Metastable intermediates as a function of reaction time. The protocol:
• 1. Heat reactor to 25-30° C. • 2. Charge water with DOTA • 3. Begin stirring (stir unless otherwise indicated, nominal rate 300 rpm) • 4. Charge 10% of the DOTA • 5. Stir until uniformly distributed in the water • 6. If all the DOTA is charged, then go to step 8 • 7. Go to step 4 • 8. Stir 10 min Preparation of Gadolinium: DOTA Complex • 9. Charge 25% by weight of the Gadolinium oxide • 10. Stir until uniformly distributed • 11. If all the Gadolinium oxide is charged then go to step 13 • 12. Go to step 9 • 13. Stir 10 min • 14. Raise temperature to 95+/−2° C. • 15. Stir 3 hrs. • 16. Check clarity • 17. If not clear continue for 1 hr, go to step 16 (this step took about 12 hours) • 18. If clear, continue 1 hr and then cool to 40-45° C. • 19. If precipitate forms, heat to 95+/−2° C. and stir for 1 hr, go to step 16 Verify Gd-Dota is Free of Metastable Intermediates • 20. A standard metastable-free Gd-DOTA reference solution is obtained by taking 5 ml of reactant obtained from steps 1-19 and diluting to a 0.2 mM Gd-DOTA solution. One measures the metastable intermediate content after synthesis for 5, 10, 15, 20, 25, 30, and 35 hours, or until the concentration of the metastable intermediate asymptotes as close to zero as possible. • 21. […] The output from a copper vapor laser tuned to 578.2 nm (Oxford Lasers, Didcot, United Kingdom) is directed through the reactant and the excitation spectrum obtained at 578.2 nm. Baseline is established by directing the laser through the quartz vessel filled with distilled water.
Stoichiometric ratios of gadolinium oxide were reacted with DOTA according to the procedure outlined in Example 1. Measurements were taken (N=1) to conserve volume. The final measurement was performed 5 times.

Data set [5] is described as follows: Feasibility of cation exchange (sodium polystyrene sulfonate), free Gd3+ by xylenol orange. As to conditions: stoichiometric sodium polystyrene sulfonate, room temperature, N = 5. The method, then:
Feasibility of cation exchange as a method of making Gd-DOTA with low metastable intermediates
Using sodium polystyrene sulfonate, rather than the polymer described above.
Ten samples were stored at room temperature with a stoichiometric amount of sodium polystyrene sulfonate.
Samples were tested using the improved spectrometric xylenol orange method.

Data set [6] is described as follows: Feasibility of excess DTPA, free Gd3+ by xylenol orange. The conditions noted are these: stoichiometric DTPA, room temperature, 24 hours. The method, then:
The metastable intermediate concentration is determined by Example 3, and associated methods described in the present application. A Gd-DOTA synthesis containing metastable intermediates is heated to 95° C. in the presence of a stoichiometric amount of DTPA sufficient to consume all the metastable intermediates. The presence of metastable intermediates can be measured as a function of time. The reaction is continued until a desired metastable intermediate content is obtained. Depending on the amount of free DOTA thus liberated, the free DOTA can be reacted with a positively charged resin, as is known in the art. Alternatively, the free DOTA may serve as a buffer against free Gd3+ formation, as is permitted in some drug formulations. Ten samples were prepared by adding stoichiometric amounts of DTPA to counter the excess Gd3+ and stored at room temperature for 24 hours. Samples were tested using the improved spectrometric xylenol orange method.

“And” between values parts separate entries of the source, which are not always exact repeats. Equal entries are not always repeated. Some results are limits rather than exact numbers.

`O=C([O-])CN1CCN(CC(=O)[O-])CCN(CC(=O)O)CCN(CC(=O)[O-])CC1.[Gd+3]` [Batch A, Gd-DOTA]: the “Free Gd” value was 15,036 +/− 12.8 ppm in data set [1] (synthesis time 4 hrs), 4,947 +/− 9.9 ppm in data set [1] (synthesis time 8 hrs) and 1,792 +/− 10.5 ppm in data set [1] (synthesis time 12 hrs).
In the case of `O=C([O-])CN1CCN(CC(=O)[O-])CCN(CC(=O)O)CCN(CC(=O)[O-])CC1.[Gd+3]` [Batch B, Gd-DOTA], the “Free Gd” value in data set [1] (synthesis time 4 hrs) is 19,276 +/− 6.3 ppm; in data set [1] (synthesis time 8 hrs), 2,793 +/− 7.1 ppm; in data set [1] (synthesis time 12 hrs), 377 +/− 5.2 ppm.
Turning to `O=C([O-])CN1CCN(CC(=O)[O-])CCN(CC(=O)O)CCN(CC(=O)[O-])CC1.[Gd+3]` [Example 1A, Gd-DOTA], the “Free Gd, titrated with meglumine to pH 7.0” value in data set [2] was 0.77+/−0.92 ppm. Further, the “Free Gd” value was 17,467 +/− 9.4 ppm in data set [2] (synthesis time 4 hrs); 3,448 +/− 8.9 ppm in data set [2] (synthesis time 8 hrs); 803 ppm and 803 +/− 8.1 ppm in data set [2] (synthesis time 12 hrs); 509 +/− 4.2 ppm in data set [2] (synthesis time 16 hrs); 63.6 +/− 9.7 ppm in data set [2] (synthesis time 20 hrs); 31.0 +/− 2.1 ppm in data set [2] (synthesis time 24 hrs). For the same compound, the “Free Gd” value in data set [2] (synthesis time 28 hrs) was 1.2 +/− 0.72 ppm; in data set [2] (synthesis time 32 hrs) it was 0.25 +/− 0.67 ppm; in data set [3] (synthesis time 4 hrs), 71,830 ppm; in data set [3] (synthesis time 8 hrs) it was 7,044 ppm; in data set [3] (synthesis time 12 hrs), 2,146 ppm; in data set [3] (synthesis time 16 hrs), 957 ppm. Also, the “Free Gd” value in data set [3] (synthesis time 20 hrs) is reported as 401 ppm; in data set [3] (synthesis time 24 hrs) it was 147 ppm; in data set [3] (synthesis time 28 hrs), 92 ppm; in data set [3] (synthesis time 32 hrs), 56 (compare to 0.77 without solvents) ppm.
For the compound `O=C([O-])CN1CCN(CC(=O)[O-])CCN(CC(=O)O)CCN(CC(=O)[O-])CC1.[Gd+3]` [Example 1B, Gd-DOTA], the “Free Gd, titrated with meglumine to pH 7.0” value in data set [2] is 0.77+/−0.92 ppm. Further, the “Free Gd” value in data set [2] (synthesis time 4 hrs) was 17,467 +/− 9.4 ppm; in data set [2] (synthesis time 8 hrs), 3,448 +/− 8.9 ppm; in data set [2] (synthesis time 12 hrs), 803 ppm and 803 +/− 8.1 ppm; in data set [2] (synthesis time 16 hrs), 509 +/− 4.2 ppm; in data set [2] (synthesis time 20 hrs), 63.6 +/− 9.7 ppm; in data set [2] (synthesis time 24 hrs), 31.0 +/− 2.1 ppm. Besides, the “Free Gd” value in data set [2] (synthesis time 28 hrs) was 1.2 +/− 0.72 ppm; in data set [2] (synthesis time 32 hrs) it was 0.25 +/− 0.67 ppm; in data set [3] (synthesis time 4 hrs) it was 71,830 ppm; in data set [3] (synthesis time 8 hrs), 7,044 ppm; in data set [3] (synthesis time 12 hrs), 2,146 ppm; in data set [3] (synthesis time 16 hrs) it was 957 ppm. Moreover, the “Free Gd” value in data set [3] (synthesis time 20 hrs) is given as 401 ppm; in data set [3] (synthesis time 24 hrs), 147 ppm; in data set [3] (synthesis time 28 hrs), 92 ppm; in data set [3] (synthesis time 32 hrs) it was 56 (compare to 0.77 without solvents) ppm.
With `O=C([O-])CN1CCN(CC(=O)[O-])CCN(CC(=O)O)CCN(CC(=O)[O-])CC1.[Gd+3]` [Example 5, Gd-DOTA], the “Metastable Intermediates” value is 28,094 +/− 9.7 ppm in data set [4] (3 hours of reaction), 3,853 +/− 12.4 ppm in data set [4] (8 hours of reaction), 72 +/− 5.0 ppm in data set [4] (24 hours of reaction) and 0.8 +/− 1.3 ppm in data set [4] (32 hours of reaction). For the same compound, the “Metastable Intermediates after titration with meglumine to pH 7.0” value in data set [4] (after 32 hours of reaction, unit not given) is on record as 1.2 +/− 3.8.
With Gd-DOTA [Example 6], the “Free Gd3+ after samples treated” value in data set [5] (24 hrs) is 685 +/− 9.4; in data set [5] (48 hrs), 292 +/− 15.2; in data set [5] (96 hrs) it was 8.9 +/− 8.5.
As for Gd-DOTA [Example 7], in data set [6], the “Gd3+ after samples treated with DTPA, range (upper value, down to undetectable)” value was not above 27.6 ppm. The “Gd3+ after samples treated with DTPA” value in data set [6] (N=5) is reported as 14.8+/−11.6 ppm.
